Results taken from patent US6440723B1, “Arrays with modified oligonucleotide and polynucleotide compositions” (Oligos Etc. Inc., priority 1998, dated 2002).

Legend:
[1] = tested on: Regular RNA 20-mer oligonucleotide SEQ ID NO:1; test: Duplex melting temperature (Tm), SEQ ID NO:1 strand as Regular RNA; format: binding; settings: SEQ ID NO:1 strand Regular RNA; four μM each strand, 50 mM NaCl, 10 mM PO4 buffer, pH 7.4
Protocol: (§1) The stability of duplexes having 2′-substituted nucleotides versus duplexes without such modification was tested by examining the Tm of these complexes. four μM each of 20-mer oligonucleotide (5′-ggt ggt tcc tcc tca gtc gg-3′; SEQ ID NO:1) and its complement (5′-ccg act gag aag gaa cca cc-3′; SEQ ID NO:2) were bound in a solution of 50 mM NaCl, 10 mM PO4 buffer, pH 7.4. Each of the nucleotides of the oligonucleotide had the same 2′ group. Following binding, the melting temperature was determined as described (See L. L. Cummins et al., Nucleic Acids Research 23:2019-2024 (1995)).

folate binding proteins = settings: cited from earlier work
[2] = tested on: 2′-OMe RNA oligo 150-mer (SEQ ID NO:3); test: Fluorescence signal of 12-mer probes bound to captured 150-mer on streptavidin plate; format: binding; settings: individual probes, fluorescence (Oregon Green 488)
From the text: A 2′-OMe RNA oligo 150-mer (SEQ ID NO:3) was captured using a 15-mer 2′-OMe oligo tethered through biotin-streptavidin onto a white 96-well plate. Observations were taken of individual 2′-OMe 12-mers complementary to portions of the 150-mer labeled on the 5′-end with Oregon Green 488. Once the signal levels were obtained for single sequences, various combinations of the 12-mers were used to determine whether the fluorescence signal from the probes was additive. The sequences of these probes were chosen at 12-base steps through the sequence of the 150-mer.

Avidin = Avidin (Gallus gallus, UniProt P02701); settings: cited from earlier work
Sequence of Avidin (P02701 25-152): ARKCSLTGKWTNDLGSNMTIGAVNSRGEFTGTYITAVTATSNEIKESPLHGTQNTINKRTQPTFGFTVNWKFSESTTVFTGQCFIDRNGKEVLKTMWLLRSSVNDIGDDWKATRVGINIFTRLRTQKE

[3] = tested on: polyclonal antibodies to cAMP; settings: cited from earlier work
[4] = tested on: Regular DNA 20-mer oligonucleotide SEQ ID NO:1; test: Duplex melting temperature (Tm), SEQ ID NO:1 strand as Regular DNA; format: binding; settings: SEQ ID NO:1 strand Regular DNA; four μM each strand, 50 mM NaCl, 10 mM PO4 buffer, pH 7.4
Protocol: as §1

Regular DNA: 20-mer SEQ ID NO:2 (5′-ccg act gag aag gaa cca cc-3′) as regular DNA [reference compound]
Tm [1]: 66 °C

tetrahydrofolate
Ka (folate binding proteins): 3e+11 M⁻¹

5′-GGGGCCGUACUG-butanol-3′ [Probe (10)]
Signal [2]: 46

O=C(O)CCCC[C@@H]1SC[C@@H]2NC(=O)N[C@@H]21 [Biotin]
Binding affinity with Avidin (Avidin): 10^15 M^−1

5′-GCCGUACUGUAG-butanol-3′ [Probe (3)]
Signal [2]: 256

5′-UGUUCACCAUGC-butanol-3′ [Probe (8)]
Signal ([2]; listed as (8)): 133

2′-O-methyl: 20-mer SEQ ID NO:2 (5′-ccg act gag aag gaa cca cc-3′), each nucleotide 2′-O-methyl
Tm [1]: 79 °C

5′-AUAGGGAAUCCU-butanol-3′ [Probe (6)]
Signal [2]: 810

p-ethoxy 2′-O-methyl: 20-mer SEQ ID NO:2 (5′-ccg act gag aag gaa cca cc-3′) as p-ethoxy 2′-O-methyl
Tm [1]: 71 °C

5′-GUGCGGGUGAUG-butanol-3′ [Probe (4)]
Signal [2]: 115

Nc1ncnc2c1ncn2[C@@H]1O[C@@H]2COP(=O)(O)O[C@H]2[C@H]1O [cAMP, cyclic AMP]
Ka of polyclonal antibodies to cAMP [3]: 10^10 to 10^12 M^−1

p-ethoxy RNA: 20-mer SEQ ID NO:2 (5′-ccg act gag aag gaa cca cc-3′) as p-ethoxy RNA
Tm [1]: 56 °C

5′-UGCAGUACAUGU-butanol-3′ [Probe (7)]
Signal [2]: 466

5′-CCACCUCACGAA-butanol-3′ [Probe (9)]
Signal ([2]; listed as (9)): 514

5′-CCACCUCACGAA-butanol-3′ [Probe (2)]
Signal ([2]; listed as (2)): 297

O=C(O)CCCCC1SCC2NC(=S)NC21 (centres unmarked) [2-thiobiotin]
Binding affinity with Avidin (Avidin): 10^13 M^−1

5′-UGUUCACCAUGC-butanol-3′ [Probe (1)]
Signal ([2]; listed as (1)): 124

COC(=O)CCCCC1SCC2NC(=O)N(C(=O)OC)C21 (centres unmarked) [3′-N-methoxy-carbonylbiotin methyl ester]
Binding affinity with Avidin (Avidin): 10^9 M^−1

COC(=O)CCCCC1SCC2C1NC(=O)N2C(=O)OC (centres unmarked) [1′-N-methoxy-carbonylbiotin methyl ester]
Binding affinity with Avidin (Avidin): 10^7 M^−1

p-ethoxy DNA: 20-mer SEQ ID NO:2 (5′-ccg act gag aag gaa cca cc-3′) as p-ethoxy DNA
Tm [4]: 55 °C

C[C@@H]1NC(=O)N[C@@H]1CCCCCC(=O)O [Dethiobiotin]
Binding affinity with Avidin (Avidin): 10^13 M^−1

N=C1N[C@H]2[C@H](CS[C@H]2CCCCC(=O)O)N1 [Iminobiotin]
Binding affinity with Avidin (Avidin): 10^11 M^−1

5′-CGAGUCCUGCAC-butanol-3′ [Probe (5)]
Signal [2]: 85
